According to patent US20230107983A1, “COMPOUND ISOLATED FROM TORILIDIS FRUCTUS, AND ANTICANCER PHARMACEUTICAL COMPOSITION CONTAINING SAME AS ACTIVE INGREDIENT” (PHARMA-GENE CO., LTD., priority 2020, published 2023):

Experiments:
[1] = tested on: liver cancer(Hep3B) cell line; test: WST-1 assay, cell viability of liver cancer cell line; type: cell-based; conditions: 10-100 µg/Mℓ, 24 hours, FIG. 6
Procedure: (§1) The cytotoxicity of the Tr-9 compound to six cancer cell lines was confirmed. Lung cancer(A549), gastric cancer(AGS), liver cancer(Hep3B)), breast cancer(MDA-MB-231), colorectal cancer(HCT116) and pancreatic cancer(BxPC-3) cell lines and fibroblasts were aliquoted in a 96-well plate in an amount of 5×10^3 cells/well, and the novel compound Tr-9 was treated thereto at a concentration of 10, 20, 40, 60, 80, 100 µg/Mℓ for 24 hours, respectively. Lung cancer cell line was further treated at a concentration of 100 µg/Mℓ for 24 hours, 48 hours and 72 hours.
(§2) Then, the amount of living cells was measured using WST(high sensitive Water Soluble Tetrazolium salt). WST reacts with dehydrogenase in living cells and produces orange-colored watersoluble formazan. Since dehydrogenase that reacts with WST is an enzyme present in the mitochondrial electron transport chain of metabolically active cells and is effective only in living cells, the production of formazan is proportional to the number of living cells. Therefore, the absorbance at 450 nm was measured to confirm the cell viability through the formation of formazan.

[2] = tested on: pancreatic cancer(BxPC-3) cell line; test: WST-1 assay, cell viability of pancreatic cancer cell line; type: cell-based; conditions: 10-100 µg/Mℓ, 24 hours, FIG. 8
Procedure: as §1, §2

[3] = tested on: colorectal cancer(HCT116) cell line; test: WST-1 assay, cell viability of colorectal cancer cell line; type: cell-based, human; conditions: 10-100 µg/Mℓ, 24 hours, FIG. 7
Procedure: as §1, §2

[4] = tested on: gastric cancer(AGS) cell line; test: WST-1 assay, cell viability of gastric cancer cell line; type: cell-based; conditions: 10-100 µg/Mℓ, 24 hours, FIG. 4
Procedure: as §1, §2

[5] = tested on: Lung cancer(A549) cell line; test: WST-1 assay, cell viability of lung cancer cell line; type: cell-based, human; conditions: 10-100 µg/Mℓ, 24 hours, FIG. 3
Procedure: as §1, §2

[6] = tested on: breast cancer(MDA-MB-231) cell line; test: WST-1 assay, cell viability of breast cancer cell line; type: cell-based; conditions: 10-100 µg/Mℓ, 24 hours, FIG. 5
Procedure: as §1, §2

Measured: cell viability

C=C(C)C1CC2=CC(=O)CC2C(C)CC1OC(=O)/C(C)=C\C (stereo not drawn) [Tr-10]
decreases the cell viability: all assays above
